Source: publication PMC8213057, “Targeting ALK2: An Open Science Approach to Developing Therapeutics for the Treatment of Diffuse Intrinsic Pontine Glioma” (Journal of Medicinal Chemistry, 2020)
Several values for one entry are separate records, joined by “and”; a condition that tells them apart may be missing. Equal values may be shown once.

Assays:
ALK2/ACVR1 = target: T1, ALK2/ACVR1 (Homo sapiens, UniProt Q04771); type: biochemical; conditions: for Fold Selectivity (ALK5/ALK2): biochemical ALK5 IC50 / ALK2 IC50; for fold decrease in inhibitory activity against ALK2: biochemical, relative to M4K2149
T1 construct: purchased Reaction Biology Corporation
T1 sequence (Q04771 21-509): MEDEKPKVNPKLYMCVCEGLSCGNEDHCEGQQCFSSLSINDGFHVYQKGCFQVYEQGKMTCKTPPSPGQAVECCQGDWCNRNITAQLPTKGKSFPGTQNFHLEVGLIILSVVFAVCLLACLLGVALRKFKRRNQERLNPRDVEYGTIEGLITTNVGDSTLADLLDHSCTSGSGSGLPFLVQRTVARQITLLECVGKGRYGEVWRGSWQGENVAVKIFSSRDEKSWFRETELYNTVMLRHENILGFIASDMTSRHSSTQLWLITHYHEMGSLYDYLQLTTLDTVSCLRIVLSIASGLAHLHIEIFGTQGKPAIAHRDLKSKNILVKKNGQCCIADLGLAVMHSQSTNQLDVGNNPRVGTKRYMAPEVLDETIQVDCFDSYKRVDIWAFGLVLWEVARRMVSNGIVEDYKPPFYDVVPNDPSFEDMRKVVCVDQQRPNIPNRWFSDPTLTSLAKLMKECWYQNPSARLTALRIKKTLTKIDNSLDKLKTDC

ALK2 = target: T2, ALK2 (Homo sapiens, UniProt Q04771); assay: NanoBRET target engagement assay in HEK293 cells; type: cell-based; conditions: DLA ALK5 IC50 / NanoBRET ALK2 IC50
T2 construct: host or cells: HEK-293
T2 sequence (Q04771 21-509): T1 sequence (Q04771 21-509)

Caco-2 cells [1] = assay: Caco-2 permeability assay; conditions: 5 μM
[2] = mouse liver microsomal stability assay; type: in vitro ADME; conditions: male, 60 min, 37 °C, read-out: MLM % Remaining at 1h
in vivo = conditions: female, CB17 SCID, mouse, po, 10 mg/kg
[3] = human liver microsomal stability assay; type: in vitro ADME; conditions: pH 7.4, human liver microsomes, 60 min, 37 °C, read-out: HLM % Remaining at 1h
[4] = Caco-2 permeability assay; conditions: human
in vitro = conditions: human, Caco-2, pH 7.4
hERG potassium channel = target: T3, hERG potassium channel (Homo sapiens, UniProt Q12809); assay: hERG patch-clamp assay in HEK293 cells; conditions: HEK293 cell-based patch-clamp
T3 construct: host or cells: HEK293

Caco-2 cells [5] = tested on: Caco-2 cells; parameters: method as in earlier work; conditions: unpublished results ref 21; cited from earlier work
[6] = CD-1, mouse, microsomes, pH 7.4, mouse liver microsomes
[7] = CD-1, pH 7.4, mouse liver microsomes

T3 sequence (Q12809 whole entry): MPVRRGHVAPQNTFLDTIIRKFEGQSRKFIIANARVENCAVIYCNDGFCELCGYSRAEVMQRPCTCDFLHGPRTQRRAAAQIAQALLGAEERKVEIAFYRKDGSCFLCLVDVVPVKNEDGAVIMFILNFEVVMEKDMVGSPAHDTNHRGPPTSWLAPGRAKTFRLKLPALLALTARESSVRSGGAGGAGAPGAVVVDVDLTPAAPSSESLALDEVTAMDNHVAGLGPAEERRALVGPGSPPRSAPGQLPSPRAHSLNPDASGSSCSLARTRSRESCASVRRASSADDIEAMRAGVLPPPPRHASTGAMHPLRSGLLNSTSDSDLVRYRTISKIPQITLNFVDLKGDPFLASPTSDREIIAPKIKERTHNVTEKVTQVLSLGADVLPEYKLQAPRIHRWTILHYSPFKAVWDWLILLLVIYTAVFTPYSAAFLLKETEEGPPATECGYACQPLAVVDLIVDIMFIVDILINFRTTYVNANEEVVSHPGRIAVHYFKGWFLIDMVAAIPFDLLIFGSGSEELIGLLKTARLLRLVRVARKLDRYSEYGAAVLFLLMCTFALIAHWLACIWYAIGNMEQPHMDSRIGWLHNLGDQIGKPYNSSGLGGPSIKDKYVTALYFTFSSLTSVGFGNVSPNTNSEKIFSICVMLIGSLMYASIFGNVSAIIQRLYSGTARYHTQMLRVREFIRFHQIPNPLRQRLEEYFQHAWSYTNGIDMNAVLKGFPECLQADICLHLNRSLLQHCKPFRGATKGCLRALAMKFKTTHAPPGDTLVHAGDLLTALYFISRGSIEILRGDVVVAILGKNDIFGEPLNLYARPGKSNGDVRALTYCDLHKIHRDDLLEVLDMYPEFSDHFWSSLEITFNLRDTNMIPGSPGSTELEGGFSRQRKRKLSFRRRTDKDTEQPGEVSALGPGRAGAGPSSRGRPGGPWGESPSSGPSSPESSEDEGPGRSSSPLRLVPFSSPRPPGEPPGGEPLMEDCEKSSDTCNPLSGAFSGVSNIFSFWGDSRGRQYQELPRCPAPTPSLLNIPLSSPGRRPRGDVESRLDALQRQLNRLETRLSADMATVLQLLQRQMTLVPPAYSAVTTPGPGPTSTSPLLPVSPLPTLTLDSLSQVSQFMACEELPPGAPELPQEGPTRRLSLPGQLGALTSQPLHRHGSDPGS

Work on `CNC(=O)c1ccc(-c2cncc(-c3ccc(N4CCNCC4)cc3)c2C)cc1OC` yielded an IC50 (ALK5) greater than 5 µM, an IC50 (DLA ALK5) greater than 5 µM and an IC50 (NanoBRET ALK2) greater than 5 µM. The IC50 (ALK2 (WT)) was greater than 1 µM.

`COc1c(C(N)=O)csc1-c1cncc(-c2ccc(N3CCNCC3)cc2)c1C` showed an IC50 (ALK5) greater than 5 µM, an IC50 (DLA ALK5) greater than 5 µM and an IC50 (NanoBRET ALK2) greater than 5 µM. The IC50 (ALK2 (WT)) was greater than 1 µM.

In the case of `COc1cc(-c2cncc(-c3ccc(N4CCNCC4)cc3)c2C)ccc1C(=O)N(C)C`, the IC50 (ALK5) is reported as greater than 5 µM, the IC50 (DLA ALK5) is reported as greater than 5 µM and the IC50 (NanoBRET ALK2) is reported as greater than 5 µM. For the same compound, the IC50 (ALK2 (WT)) was greater than 1 µM.

For `COc1cc(-c2cncc(-c3ccc(N4CCNCC4)cc3)c2C)sc1C(N)=O` [Compound 7a, 3-Methoxy-5-(4-methyl-5-(4-(piperazin-1-yl)phenyl)pyridin-3-yl)thiophene-2-carboxamide], the IC50 (ALK5) was greater than 5 µM, the IC50 (DLA ALK5) was greater than 5 µM and the “Fold Selectivity (ALK5/ALK2)” value (ALK2/ACVR1) was greater than 6. For the same compound, the “fold decrease in inhibitory activity against ALK2” value (ALK2/ACVR1) was “greater than 40 fold” and the “Cell-based Fold Selectivity” value (ALK2) was greater than 1.

With `COc1c(-c2cncc(-c3ccc(N4CCNCC4)cc3)c2C)csc1C(N)=O` [Compound 7b, 3-Methoxy-4-(4-methyl-5-(4-(piperazin-1-yl)phenyl)pyridin-3-yl)thiophene-2-carboxamide] the IC50 (ALK5) was greater than 5 µM, the IC50 (DLA ALK5) was greater than 5 µM and the “Fold Selectivity (ALK5/ALK2)” value (ALK2/ACVR1) was greater than 7. The “fold decrease in inhibitory activity against ALK2” value (ALK2/ACVR1) was “greater than 40 fold” and the “Cell-based Fold Selectivity” value (ALK2) was greater than 1.

With `COc1cc(-c2cncc(-c3ccc(N4CCNCC4)cc3)c2C)cc(F)c1C(N)=O` [Compound 8b, 2-Fluoro-6-methoxy-4-(4-methyl-5-(4-(piperazin-1-yl)phenyl)pyridin-3-yl)benzamide] the Papp_AB (Caco-2 cells [1]; Caco-2, apical to basolateral) was 0.3 10^-6 cm/s, the Papp_BA (Caco-2 cells [1]; Caco-2, basolateral to apical) was 10.7 10^-6 cm/s and the remaining at 1 h, 1 μM [2, 6] was 98.4%. The half-life at 24 h (in vivo) was 1.31 h, the “Fold Selectivity (ALK5/ALK2)” value (ALK2/ACVR1) was 80 and the remaining at 1 h, 1 μM ([3]; human, microsomes) was 105%.

Compound `COc1cc(-c2cncc(-c3ccc(N4CCNCC4)cc3)c2C)cc(OC)c1C(N)=O` [Compound 8c, 2,6-Dimethoxy-4-(4-methyl-5-(4-(piperazin-1-yl)phenyl)pyridin-3-yl)benzamide] has a Papp A→B at 120 min, 5 μM ([4]; Caco-2, pH 7.4) of 0.1 ×10⁻⁶ cm/s, a Papp B→A at 120 min, 5 μM ([4]; Caco-2, pH 7.4) of 6.1 ×10⁻⁶ cm/s and a remaining at 1 h, 1 μM [2, 7] of 99.8%. The “Fold Selectivity (ALK5/ALK2)” value (ALK2/ACVR1) was 9 and the remaining at 1 h, 1 μM ([3]; pooled liver microsomes) was 88.8%.

`COc1ccc(-c2cncc(-c3ccc(N4CCNCC4)cc3)c2C)cc1C(N)=O` [Compound 14a, 2-Methoxy-5-(4-methyl-5-(4-(piperazin-1-yl)phenyl)pyridin-3-yl)benzamide] gave an IC50 (ALK5) greater than 5 µM, an IC50 (DLA ALK5) greater than 5 µM and an IC50 (ALK2 (WT)) greater than 1 µM. The “Cell-based Fold Selectivity” value (ALK2) was greater than 7.

For `COc1cc(C(N)=O)cc(-c2cncc(-c3ccc(N4CCNCC4)cc3)c2C)c1` [Compound 14b, 3-Methoxy-5-(4-methyl-5-(4-(piperazin-1-yl)phenyl)pyridin-3-yl)benzamide], the IC50 (ALK5) was greater than 5 µM, the IC50 (DLA ALK5) was greater than 5 µM and the “Fold Selectivity (ALK5/ALK2)” value (ALK2/ACVR1) was greater than 49. The “Cell-based Fold Selectivity” value (ALK2) was greater than 8.

For `Cc1c(-c2ccc(N3CCNCC3)cc2)cncc1-c1ccc2c(c1)CNC2=O` [Compound 20a, 5-(4-Methyl-5-(4-(piperazin-1-yl)phenyl)pyridin-3-yl)isoindolin-1-one], the IC50 (ALK5) was greater than 5 µM and the “Fold Selectivity (ALK5/ALK2)” value (ALK2/ACVR1) was greater than 7.

For `Cc1c(-c2ccc(C(N)=O)cc2)cncc1-c1ccc(N2CCNCC2)cc1` [Compound 20b, 4-(4-Methyl-5-(4-(piperazin-1-yl)phenyl)pyridin-3-yl)benzamide], the IC50 (ALK5) was greater than 5 µM, the IC50 (DLA ALK5) was greater than 5 µM and the “Fold Selectivity (ALK5/ALK2)” value (ALK2/ACVR1) was greater than 10. For the same compound, the “fold decrease in inhibitory activity against ALK2” value (ALK2/ACVR1) was 28 fold and the “Cell-based Fold Selectivity” value (ALK2) was greater than 1.

For `COCc1cc(-c2cncc(-c3ccc(N4CCNCC4)cc3)c2C)ccc1C(N)=O` [Compound 20c, 2-(Methoxymethyl)-4-(4-methyl-5-(4-(piperazin-1-yl)phenyl)pyridin-3-yl)benzamide], the IC50 (ALK5) was greater than 5 µM, the IC50 (DLA ALK5) was greater than 5 µM and the “Fold Selectivity (ALK5/ALK2)” value (ALK2/ACVR1) was greater than 7. For the same compound, the “Cell-based Fold Selectivity” value (ALK2) was greater than 1.

For `Cc1c(-c2ccc(N3CCNCC3)cc2)cncc1-c1ccc(C(N)=O)c(F)c1` [Compound 20d, 2-Fluoro-4-(4-methyl-5-(4-(piperazin-1-yl)phenyl)pyridin-3-yl)benzamide], the IC50 (ALK5) was greater than 5 µM, the IC50 (DLA ALK5) was greater than 5 µM and the “Fold Selectivity (ALK5/ALK2)” value (ALK2/ACVR1) was greater than 19. The “Cell-based Fold Selectivity” value (ALK2) was greater than 4.

With `COc1cc(-c2cncc(-c3ccc(N4CCNCC4)cc3)c2C)cc(Cl)c1C(N)=O` [Compound 20e, 2-Chloro-6-methoxy-4-(4-methyl-5-(4-(piperazin-1-yl)phenyl)pyridin-3-yl)benzamide] the IC50 (DLA ALK5) was greater than 5 µM, the IC50 (ALK2 (G328V)) was less than 0.002 µM and the “Cell-based Fold Selectivity” value (ALK2) was greater than 54.

With `COc1cc(-c2cncc(-c3ccc(N4CCN(C)CC4)cc3)c2C)cc(OC)c1C(N)=O` [Compound 26d, 2,6-Dimethoxy-4-(4-methyl-5-(4-(4-methylpiperazin-1-yl)phenyl)pyridin-3-yl)benzamide] the IC50 (ALK2 (R258G)) was less than 0.002 µM, the Papp A→B at 120 min, 5 μM ([4]; Caco-2, pH 7.4) was 0.7 ×10⁻⁶ cm/s and the Papp B→A at 120 min, 5 μM ([4]; Caco-2, pH 7.4) was 13.9 ×10⁻⁶ cm/s. The efflux ratio at 120 min, 5 μM ([4]; Caco-2, pH 7.4) was greater than 10, the remaining at 1 h, 1 μM [2, 7] was 85.2% and the IC50 (ALK2 (WT)) was less than 0.003 µM. The remaining at 1 h, 1 μM ([3]; pooled liver microsomes) was 81.4% and the IC50 (ALK2 (G328V)) was less than 0.002 µM.

For `COc1cc(-c2cncc(-c3ccc(N4CCN(C(C)C)CC4)cc3)c2C)cc(OC)c1C(N)=O` [Compound 26e, 4-(5-(4-(4-Isopropylpiperazin-1-yl)phenyl)-4-methylpyridin-3-yl)-2,6-dimethoxybenzamide], the Papp A→B at 120 min, 5 μM ([4]; Caco-2, pH 7.4) was 0.9 ×10⁻⁶ cm/s, the Papp B→A at 120 min, 5 μM ([4]; Caco-2, pH 7.4) was 14.4 ×10⁻⁶ cm/s and the efflux ratio at 120 min, 5 μM ([4]; Caco-2, pH 7.4, Efflux ratio, Caco-2, Papp (B-to-A)/Papp (A-to-B)) was greater than 10. For the same compound, the remaining at 1 h, 1 μM [2, 7] was 99.5%, the “Fold Selectivity (ALK5/ALK2)” value (ALK2/ACVR1) was 13 and the remaining at 1 h, 1 μM ([3]; pooled liver microsomes) was 98%.

`COc1cc(-c2cncc(-c3ccc(N4C[C@@H](C)N(C)[C@@H](C)C4)cc3)c2C)cc(OC)c1C(N)=O` [Compound 26f, 2,6-Dimethoxy-4-(4-methyl-5-(4-((3R,5S)-3,4,5-trimethylpiperazin-1-yl)phenyl)pyridin-3-yl)benzamide] showed a remaining at 1 h, 1 μM [2, 6] of 57.5%, an IC50 (NanoBRET ALK2) of 0.021 µM and a remaining at 1 h, 1 μM ([3]; human, microsomes) of 55.7%. It also gave a Papp A→B (in vitro) of 0.7 ×10⁻⁶ cm/s and a Papp B→A (in vitro) of 12.6 ×10⁻⁶ cm/s.

For `COc1cc(-c2cncc(-c3ccc(N4CCNCC4)cc3)c2C)ccc1C(N)=O` [Compound M4K2149], the IC50 (hERG potassium channel) is listed as greater than 50 µM, the efflux ratio (Caco-2 cells [5]) is listed as 8.1 and the IC50 (hERG) is listed as >50 µM and >30 µM.
